Earlier results in patent publication US20030104085A1, “Methods and compositions for treating back pain” (priority 2001, published 2003).

How the values were obtained:
[1] = system: rats; conditions: subcutaneous and epidural administration; cited from earlier work
[2] = system: nerve endings in the skin; conditions: topical administration; cited from earlier work

## C=C(C)[C@]12C[C@@H](C)[C@@]34O[C@](Cc5ccccc5)(O[C@@H]1[C@@H]3C=C(COC(=O)Cc1ccc(O)c(OC)c1)C[C@]1(O)C(=O)C(C)=C[C@@H]41)O2 [RTX, resiniferatoxin]
[1]
  thermal analgesia: produce thermal analgesia
  time without restoration of pain sensitivity: over 7 days
[2]
  sensitivity to chemical pain stimulation: long-lasting insensitivity to chemical pain stimulation
